These are literature values, as cited in patent US7141532B2, “Process for the preparation of a dry pesticidal composition containing a dicarboxylate component” (Monsanto Technology LLC, priority 2002, dated 2006).

Regarding `O=C(O)C(=O)O` [Oxalic acid], the pK1 result (first proton) is listed as “about 1.25”. Further, the pK2 entry (second proton) is “about 4.29”.
